Results as given in ChEMBL document CHEMBL1201862, “PubChem BioAssay data set” (2004).
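Step 1: Grow cells in 96-well plates. Step 2: Expose to compound for 48 hours at 5 concentrations. Step 3: Interpolate endpoints linearly; if unreached, use highest concentration. GI50: concentration for 50% inhibition of growth.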 Calls of active or inactive are those of the source. No stated cut-off is given here; in the data, active = GI50 up to about 1.1 µM and inactive = higher.

Experiments:
Experiment in all cases: inhibition of tumour cell growth, NCI panel, 48 h
EKVX = system: EKVX
HCC 2998 = system: HCC 2998
HCT-15 = system: HCT-15
HL-60 = system: HL-60
HOP-62 = system: HOP-62
LOX IMVI = system: LOX IMVI
MOLT-4 = system: MOLT-4
Malme-3M = system: Malme-3M
NCI-H23 = system: NCI-H23
NCI-H460 = system: NCI-H460
SF-295 = system: SF-295
SK-MEL-28 = system: SK-MEL-28
SK-MEL-5 = system: SK-MEL-5
SK-OV-3 = system: SK-OV-3
SW-620 = system: SW-620
TK-10 = system: TK-10
UACC-257 = system: UACC-257
UO-31 = system: UO-31

| SMILES | GI50 (EKVX) | GI50 (HCC 2998) | GI50 (HCT-15) [µM] | GI50 (HL-60) | GI50 (HOP-62) | GI50 (LOX IMVI) | GI50 (MOLT-4) | GI50 (Malme-3M) | GI50 (NCI-H23) | GI50 (NCI-H460) | GI50 (SF-295) | GI50 (SK-MEL-28) | GI50 (SK-MEL-5) | GI50 (SK-OV-3) | GI50 (SW-620) | GI50 (TK-10) | GI50 (UACC-257) | GI50 (UO-31) |
| --- | --- | --- | --- | --- | --- | --- | --- | --- | --- | --- | --- | --- | --- | --- | --- | --- | --- | --- |
| CN(C)CCNC(=O)c1cccc2cc3ccc4ccccc4c3nc12 | 0.145 µM (active) | 0.104 µM (active) | 0.0684 | 0.0336 µM (active) | 0.0957 µM (active) | 0.0502 µM (active) | 0.0156 µM (active) | 0.268 µM (active) | 0.0851 µM (active) | 0.0149 µM (active) | 0.0867 µM (active) | 0.198 µM (active) | 0.137 µM (active) | 0.121 µM (active) | 0.0306 µM (active) | 0.207 µM (active) | 0.177 µM (active) | 0.0481 µM (active) |
| COCCOCC(=O)N(CCn1ccc(NC(c2ccccc2)(c2ccccc2)c2ccccc2)nc1=O)CCn1cnc2nc(N)[nH]c(=O)c21 | > 100 µM (inactive) | > 100 µM (inactive) | > 100 | > 100 µM (inactive) | > 100 µM (inactive) | > 100 µM (inactive) | > 100 µM (inactive) | > 100 µM (inactive) | > 100 µM (inactive) | > 100 µM (inactive) | > 100 µM (inactive) | > 100 µM (inactive) | > 100 µM (inactive) | – | > 100 µM (inactive) | > 100 µM (inactive) | > 100 µM (inactive) | > 100 µM (inactive) |
| COc1ccc(/N=N/c2c(-c3ccccc3)nn(C(=O)CC(=O)Nc3cccc(Cl)c3)c2-c2ccccc2)cc1 | 29.4 µM (inactive) | 21.5 µM (inactive) | > 100 | > 100 µM (inactive) | 24.2 µM (inactive) | > 100 µM (inactive) | 70.1 µM (inactive) | > 100 µM (inactive) | 22.6 µM (inactive) | 49.3 µM (inactive) | 26.9 µM (inactive) | > 100 µM (inactive) | 72.9 µM (inactive) | > 100 µM (inactive) | > 100 µM (inactive) | 72.9 µM (inactive) | > 100 µM (inactive) | 5.11 µM (inactive) |
| Cc1ccc(/C=N/NS(=O)(=O)c2ccccc2)cc1 | > 100 µM (inactive) | > 100 µM (inactive) | > 100 | > 100 µM (inactive) | > 100 µM (inactive) | > 100 µM (inactive) | > 100 µM (inactive) | > 100 µM (inactive) | > 100 µM (inactive) | > 100 µM (inactive) | 74 µM (inactive) | > 100 µM (inactive) | > 100 µM (inactive) | > 100 µM (inactive) | > 100 µM (inactive) | > 100 µM (inactive) | > 100 µM (inactive) | > 100 µM (inactive) |
| C=C1C(=O)OC2C=C(CCC(C)=O)C(C)C(OC(C)=O)CC12 (configuration not stated) | 12.9 µM (inactive) | 9.93 µM (inactive) | 6.11 | 3.33 µM (inactive) | > 10 µM (inactive) | 1.61 µM (inactive) | 6.1 µM (inactive) | 11.2 µM (inactive) | – | 18.7 µM (inactive) | 17.7 µM (inactive) | 8.26 µM (inactive) | – | – | 0.313 µM (active) | 12 µM (inactive) | – | 13.6 µM (inactive) |
| COC1OC(C)C2OC(C)(C)OC2C1OC(C)=O (configuration not stated) | – | > 100 µM (inactive) | > 100 | > 100 µM (inactive) | > 100 µM (inactive) | > 100 µM (inactive) | > 100 µM (inactive) | > 100 µM (inactive) | > 100 µM (inactive) | > 100 µM (inactive) | > 100 µM (inactive) | > 100 µM (inactive) | > 100 µM (inactive) | – | > 100 µM (inactive) | > 100 µM (inactive) | > 100 µM (inactive) | – |
| CC1(C)C(O)C[C@@H](O)[C@@]2(C)C1CC[C@]1(C)C2C[C@@H](O)[C@@H]2C([C@@]3(C)CC[C@@H](C(C)(C)O)O3)CCC21C (some centres not stated) | 24.9 µM (inactive) | 17.5 µM (inactive) | 12.6 | 14.2 µM (inactive) | 16.6 µM (inactive) | 11 µM (inactive) | 22 µM (inactive) | 13.4 µM (inactive) | 17.4 µM (inactive) | 18.9 µM (inactive) | 15.7 µM (inactive) | 13.8 µM (inactive) | 10.4 µM (inactive) | 15.9 µM (inactive) | 16.5 µM (inactive) | 27.2 µM (inactive) | 21 µM (inactive) | 17.5 µM (inactive) |
| COc1ccc(C(c2ccc(C(C)C)cc(OC)c2=O)c2ccc(C(C)C)cc(OC)c2=O)cc1 | 13.6 µM (inactive) | – | 12.7 | 12.2 µM (inactive) | 21 µM (inactive) | 15.3 µM (inactive) | 7.53 µM (inactive) | 16.5 µM (inactive) | 16.3 µM (inactive) | 14.6 µM (inactive) | 16.2 µM (inactive) | – | 14.3 µM (inactive) | 18.4 µM (inactive) | 15.5 µM (inactive) | 19.6 µM (inactive) | 15.5 µM (inactive) | 14.3 µM (inactive) |
| O=C(CC1(O)C(=O)Nc2c(Cl)cc(Cl)cc21)c1ccc(F)cc1 (configuration not stated) | 68.7 µM (inactive) | 40 µM (inactive) | 30.6 | – | 48 µM (inactive) | 24.7 µM (inactive) | – | 41.9 µM (inactive) | 28.5 µM (inactive) | 38.8 µM (inactive) | 34.7 µM (inactive) | 71.6 µM (inactive) | – | 93.8 µM (inactive) | 43.7 µM (inactive) | > 100 µM (inactive) | 27.6 µM (inactive) | 42.1 µM (inactive) |
| Cc1ccc(S(=O)(=O)N/N=C(\c2nc3ccc([N+](=O)[O-])cc3nc2O)C(O)c2ccccc2Cl)cc1 (configuration not stated) | > 100 µM (inactive) | > 100 µM (inactive) | 78 | 27.5 µM (inactive) | > 100 µM (inactive) | > 100 µM (inactive) | > 100 µM (inactive) | > 100 µM (inactive) | > 100 µM (inactive) | > 100 µM (inactive) | > 100 µM (inactive) | > 100 µM (inactive) | 55.3 µM (inactive) | > 100 µM (inactive) | > 100 µM (inactive) | > 100 µM (inactive) | > 100 µM (inactive) | > 100 µM (inactive) |
| Cc1ccc(S(=O)(=O)C(C#N)c2nc3ccccc3nc2-n2cccn2)cc1 (configuration not stated) | > 100 µM (inactive) | > 100 µM (inactive) | > 100 | > 100 µM (inactive) | – | – | > 100 µM (inactive) | > 100 µM (inactive) | > 100 µM (inactive) | > 100 µM (inactive) | > 100 µM (inactive) | > 100 µM (inactive) | – | > 100 µM (inactive) | – | > 100 µM (inactive) | > 100 µM (inactive) | > 100 µM (inactive) |
| Cc1cccc(/N=C/c2ccc(N(CCC#N)S(=O)(=O)c3ccccc3)cc2C)c1 | > 100 µM (inactive) | > 100 µM (inactive) | 98.6 | 21.9 µM (inactive) | > 100 µM (inactive) | 17.6 µM (inactive) | 29.2 µM (inactive) | > 100 µM (inactive) | > 100 µM (inactive) | – | > 100 µM (inactive) | > 100 µM (inactive) | > 100 µM (inactive) | > 100 µM (inactive) | > 100 µM (inactive) | > 100 µM (inactive) | > 100 µM (inactive) | 13.3 µM (inactive) |
| CCOC(=O)C1S/C(=N\C(=N)N[N+](=O)[O-])N=C1C (configuration not stated) | > 100 µM (inactive) | > 100 µM (inactive) | > 100 | > 100 µM (inactive) | > 100 µM (inactive) | > 100 µM (inactive) | > 100 µM (inactive) | > 100 µM (inactive) | > 100 µM (inactive) | > 100 µM (inactive) | > 100 µM (inactive) | > 100 µM (inactive) | – | – | > 100 µM (inactive) | > 100 µM (inactive) | > 100 µM (inactive) | > 100 µM (inactive) |
| O=C1C(=Cc2cccs2)C(=O)N(CCc2ccccc2)S(=O)(=O)N1CCc1ccccc1 | > 50 µM (inactive) | > 50 µM (inactive) | > 50 | 14 µM (inactive) | – | 28.9 µM (inactive) | > 50 µM (inactive) | > 50 µM (inactive) | > 50 µM (inactive) | > 50 µM (inactive) | > 50 µM (inactive) | > 50 µM (inactive) | > 50 µM (inactive) | > 50 µM (inactive) | > 50 µM (inactive) | > 50 µM (inactive) | > 50 µM (inactive) | > 50 µM (inactive) |
| C=CCC1(CN(C)C)CC/C(=C\c2ccc(Cl)cc2)C1=O (configuration not stated) | 38.9 µM (inactive) | 33.1 µM (inactive) | 25.1 | 29.9 µM (inactive) | > 100 µM (inactive) | 23.8 µM (inactive) | 17.9 µM (inactive) | > 74.5 µM (inactive) | 47.5 µM (inactive) | 20.2 µM (inactive) | 35.5 µM (inactive) | > 83.2 µM (inactive) | 28.8 µM (inactive) | > 100 µM (inactive) | 26.9 µM (inactive) | > 100 µM (inactive) | 25.5 µM (inactive) | 41.5 µM (inactive) |
| Cc1cc(C)nc(NS(=O)(=O)c2ccc(NC(=O)c3cccc4cc5ccccc5nc34)cc2)n1 | 69.8 µM (inactive) | – | 21 | – | 62.7 µM (inactive) | 22.9 µM (inactive) | 19.6 µM (inactive) | 23.4 µM (inactive) | 25.9 µM (inactive) | 34 µM (inactive) | 30.1 µM (inactive) | 31.2 µM (inactive) | 25.5 µM (inactive) | > 100 µM (inactive) | 32.7 µM (inactive) | 50.2 µM (inactive) | 37.3 µM (inactive) | 53.8 µM (inactive) |
| CC1(C)C(O)OC(O)C1(C)C (configuration not stated) | > 100 µM (inactive) | > 100 µM (inactive) | 28.1 | 42.9 µM (inactive) | > 100 µM (inactive) | 46.9 µM (inactive) | 49.2 µM (inactive) | > 100 µM (inactive) | – | > 100 µM (inactive) | > 100 µM (inactive) | 43.4 µM (inactive) | 32.8 µM (inactive) | > 100 µM (inactive) | 49.7 µM (inactive) | > 100 µM (inactive) | 34.5 µM (inactive) | 57.3 µM (inactive) |
